In article PMC12624906, “Discovery of benzyl carbamate inhibitors of coronavirus M^pro enzymes from a legacy collection of cysteine protease inhibitors” (Journal of Enzyme Inhibition and Medicinal Chemistry, 2025):
Values joined by “and” are separate entries in the source; they are usually repeats but may differ in a detail not shown here. Equal entries are not always repeated. Where two headings read alike, the source gives them in different places.

Experiments:
SARS-CoV-2 M^pro [1] = biological target: T1, SARS-CoV-2 M^pro (Severe acute respiratory syndrome coronavirus 2, UniProt P0DTD1); assay: biochemical; conditions: compound at 10 μM, 15-min pre-incubation, relative to DMSO control, mean ± SE; for % inhibition of SARS-CoV-2 M^pro activity: 10 µM
SARS-CoV-2 M^pro [2] = biological target: T1, SARS-CoV-2 M^pro; assay: biochemical; assay type: biochemical; conditions: for IC50: 15-min pre-incubation, two independent assays in triplicate (n = 6)
SARS-CoV M^pro = SARS-CoV M^pro (Severe acute respiratory syndrome coronavirus, UniProt P0C6X7); assay: biochemical; assay type: biochemical; conditions: for IC50: n = 6
MERS-CoV M^pro = MERS-CoV M^pro (Middle East respiratory syndrome-related coronavirus, UniProt K9N7C7); assay: biochemical; assay type: biochemical; conditions: for IC50: n = 6
[3] = biological target: T2, human cathepsin L (hCatL) (Homo sapiens, UniProt P07711); assay: hCatL inhibition assay (Z-Phe-Arg-AMC); assay type: biochemical; conditions: 15-min pre-incubation; pH 5.5; n = 6
T2 construct: purchased R&D Systems 952-CY-010

SARS-CoV-2 PL^pro = SARS-CoV-2 PL^pro (Severe acute respiratory syndrome coronavirus 2, UniProt P0DTD1); assay: biochemical; conditions: 15-min pre-incubation, one assay in triplicate (n = 3), mean ± SE
SARS-CoV-2 M^pro [4] = biological target: T1, SARS-CoV-2 M^pro; assay: biochemical; assay type: biochemical; conditions: for fold decrease in IC50 with 15-min pre-incubation vs without: SARS-CoV-2 M^pro, 15-min vs 0-min pre-incubation
SARS-CoV-2 M^pro [5] = biological target: T1, SARS-CoV-2 M^pro; assay type: biochemical; conditions: pre-incubated 30 min at 10-fold IC50 with 100× enzyme, diluted 100-fold to 0.1-fold IC50; monitored 2 h
in vitro [6] = conditions: mouse
in vitro [7] = conditions: green monkey
[8] = biological target: T2, human cathepsin L (hCatL); parameters: method as in PMID 37435731; conditions: E-64 data reported previously; cited from earlier work
L929 cells = system: L929 cells; parameters: method as in PMID 39072124; conditions: ribavirin data reported previously; cited from earlier work
Vero cells = system: Vero cells; parameters: method as in PMID 38194508; conditions: ribavirin data reported previously; cited from earlier work
[9] = 15-min pre-incubation before substrate, value per independent assay (Figure 3, black), read-out: IC50 SARS-CoV-2 M^pro, 15-min pre-incubation
[10] = 30-min pre-incubation before substrate, value per independent assay (Figure 3, violet), read-out: IC50 SARS-CoV-2 M^pro, 30-min pre-incubation
[11] = no pre-incubation before substrate, value per independent assay (Figure 3, teal), read-out: IC50 SARS-CoV-2 M^pro, 0-min pre-incubation

T2 sequence (P07711 114-333): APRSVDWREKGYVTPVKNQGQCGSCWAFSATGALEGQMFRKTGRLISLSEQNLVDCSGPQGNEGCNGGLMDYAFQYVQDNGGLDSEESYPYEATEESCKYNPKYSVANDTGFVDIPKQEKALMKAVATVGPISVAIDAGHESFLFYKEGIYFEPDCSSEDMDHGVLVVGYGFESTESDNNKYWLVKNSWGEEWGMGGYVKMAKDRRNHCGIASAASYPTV
Sequence of MERS-CoV M^pro (K9N7C7 3248-3553 limits assumed): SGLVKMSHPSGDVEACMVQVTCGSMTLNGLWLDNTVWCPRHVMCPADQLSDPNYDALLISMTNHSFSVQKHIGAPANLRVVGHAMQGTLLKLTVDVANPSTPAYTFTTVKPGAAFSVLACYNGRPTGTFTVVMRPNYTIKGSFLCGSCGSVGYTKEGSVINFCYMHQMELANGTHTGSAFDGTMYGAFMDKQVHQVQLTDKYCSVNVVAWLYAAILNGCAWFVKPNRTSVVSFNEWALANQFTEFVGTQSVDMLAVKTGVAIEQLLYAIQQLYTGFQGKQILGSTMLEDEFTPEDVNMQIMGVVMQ

Structure (SMILES)	inhibition at 10 µM (SARS-CoV-2 M^pro [1]) [%]	IC50 (SARS-CoV-2 M^pro [2]) [nM]	IC50 (SARS-CoV M^pro)	IC50 (MERS-CoV M^pro) [nM]	IC50 [3] [nM]	inhibition at 10 µM (SARS-CoV-2 PL^pro) [%]	IC50 (SARS-CoV-2 M^pro [4]; [9])	IC50 (SARS-CoV-2 M^pro [4]; [10])	fold decrease in IC50 with 15-min pre-incubation vs without (SARS-CoV-2 M^pro [4]) [fold]	IC50 (SARS-CoV-2 M^pro [4]; [11])	inhibition after rapid dilution (reversibility) (SARS-CoV-2 M^pro [5])	CC50 at 48 h (in vitro [6]) [nM]	CC50 at 48 h (in vitro [7]) [nM]	also measured
O=C(NC(CCc1ccccc1)C(O)c1cc1=O)C(Cc1ccccc1)NC(=O)N1CCOCC1 (centres unmarked) [Compound 2a]	54 ± 1.34	8120 ± 40	> 10000 nM	> 10000	184 ± 3	5.2 ± 1.23	–	–	–	–	–	–	–	–
COC(=O)/C=C/C(=O)[C@@H](C)NC(=O)[C@H](Cc1ccccc1)NC(=O)OCc1ccccc1 [Compound 1a]	> 95	415 ± 18	699 ± 12.5 nM	3790 ± 640	319 ± 1	0	433 nM and 397 nM	249 nM and 301 nM	~2	1020 nM and 1160 nM	reversible inhibition	73500 ± 4340	17200 ± 500	% inhibition of SARS-CoV-2 M^pro activity (SARS-CoV-2 M^pro [1]): 96.75 ± 1.04%
CC(C)C[C@H](NC(=O)[C@H]1O[C@@H]1C(=O)O)C(=O)NCCCCN=C(N)N [Compound E-64]	–	–	–	–	–	–	–	–	–	–	–	–	–	IC50 [8]: 8 ± 1 nM
C=CC(=O)[C@@H](C)NC(=O)[C@@H](Cc1ccccc1)NC(=O)OCc1ccccc1 [Compound 5a]	> 95	160 ± 5.8	110 ± 17.3 nM	830 ± 53.5	> 10000	6.14 ± 2.42	154 nM and 166 nM	103 nM and 115 nM	~4	757 nM and 708 nM	reversible inhibition	102000 ± 2060	49000 ± 3280	% inhibition of SARS-CoV-2 M^pro activity (SARS-CoV-2 M^pro [1]): 100.00 ± 0.00%; fold decrease in activity against MERS-CoV M^pro compared to SARS-related M^pro enzymes (MERS-CoV M^pro): ~5 fold; IC50 hCatL [3]: inactive
O=C(N[C@H](CCc1ccccc1)C(=O)CS(=O)(=O)c1ccccc1)[C@H](Cc1ccccc1)NC(=O)N1CCOCC1 [Compound 4a]	52.5 ± 3.61	8720 ± 540	> 10000 nM	> 10000	10700 ± 240	1.56 ± 4.68	–	–	–	–	–	–	–	–
C=CC(=O)[C@H](C)NC(=O)[C@@H](Cc1ccccc1)NC(=O)OCc1ccccc1 [Compound 5b]	100	128 ± 6	73 nM and 73.2 nM	–	> 10000	–	134 nM and 122 nM	114 nM and 111 nM	~4	639 nM and 707 nM	reversible inhibition	85900 ± 1690	37500 ± 2140	fold less potent than nirmatrelvir, SARS-CoV-2 M^pro IC50 (SARS-CoV-2 M^pro [2]): approximately 7 fold; fold greater IC50 than nirmatrelvir, SARS-CoV M^pro (SARS-CoV M^pro): 2.4 fold; IC50 hCatL [3]: inactive
CCOC(=O)C1CCN(C(=O)N[C@@H](CC(C)C)C(=O)N[C@@H](/C=C/S(=O)(=O)c2ccccc2)COc2ccccc2)CC1 [Compound 3a]	51.5 ± 1.38	16420 ± 90	> 10000 nM	> 10000	763 ± 79	1.84 ± 2.85	–	–	–	–	–	–	–	–
NC(=O)c1ncn([C@@H]2O[C@H](CO)[C@@H](O)[C@H]2O)n1 [Ribavirin, ribavirin]	–	–	–	–	–	–	–	–	–	–	–	–	–	CC50 (L929 cells): > 100000 nM; CC50 (Vero cells): > 100000 nM
